Measurements: PMC10882719 (Frontiers in Neuroscience, 2024)
Like-named read-outs stand apart in the source and are kept apart here.

Columns and labels:
[1] = system: amygdala gene expression; test: RNA-seq differential gene expression, amygdala; type: in vivo, rat; settings: 10 mg/kg IP, 8 h
[2] = target: T1, 5HT2C receptor (Homo sapiens, UniProt P28335); test: GPCRmax screen, antagonist mode, 5HT2C; type: cell-based; settings: for % Antagonist Activity: HTR2C
T1 construct: β-galactosidase enzyme fragment (enzyme fragment complementation reporter); host or cells: PathHunter cell lines
T1 sequence (P28335 33-458): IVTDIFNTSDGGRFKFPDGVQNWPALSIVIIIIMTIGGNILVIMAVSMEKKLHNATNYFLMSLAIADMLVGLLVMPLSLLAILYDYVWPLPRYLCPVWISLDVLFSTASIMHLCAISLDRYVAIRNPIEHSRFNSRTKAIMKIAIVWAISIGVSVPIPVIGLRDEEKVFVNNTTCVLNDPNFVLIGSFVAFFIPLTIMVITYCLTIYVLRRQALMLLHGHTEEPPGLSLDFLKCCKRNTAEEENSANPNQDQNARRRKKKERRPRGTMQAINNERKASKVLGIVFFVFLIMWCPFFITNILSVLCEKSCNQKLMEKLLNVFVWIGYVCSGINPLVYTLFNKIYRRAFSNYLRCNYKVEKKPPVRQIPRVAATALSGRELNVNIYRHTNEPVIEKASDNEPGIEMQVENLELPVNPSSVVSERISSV
Protocol: (§1) Studies were performed at Eurofins DiscoverX Corporation (Fremont, CA) using the GPCRmax assay according to the manufacturer’s protocols. […] Activity greater than 30% typically indicates agonist activity and inhibition greater than 50% indicates antagonist activity. This assay uses enzyme fragment complementation with […] as the functional reporter. When a GPCR is activated, […] is recruited and the reporter is detectable. GPCRmax offers a high-throughput screen of 168 GPCRs for agonist or antagonist activity. Briefly, PathHunter cell lines were propagated, seeded into 384-well microplates and incubated at 37°C. […] Microplates were read following signal generation with a PerkinElmer Envision™ instrument for chemiluminescent signal detection. Compound activity was analyzed using CBIS data analysis suite (ChemInnovation, CA) to determine raw values (RLU). For agonist mode assay, percentage activity was calculated using the following formula: % Activity =100% × (mean RLU of test sample - mean RLU of vehicle control) / (mean MAX control ligand - mean RLU of vehicle control). For antagonist mode assay, percentage inhibition was calculated using the following formula: % Inhibition =100% × (1 - (mean RLU of test sample - mean RLU of vehicle control) / (mean RLU of EC80 control - mean RLU of vehicle control)).

[3] = target: T2, dopamine (DA) transporter (DAT) (Rattus norvegicus, UniProt P23977); test: Competitive radioligand binding, [3H]WIN35428, rat brain membranes
T2 construct: Rat brains were dissected and tissue was homogenized in cold lysis buffer; from tissue; host or cells: rat brain membrane preparation
T2 sequence (P23977 whole entry): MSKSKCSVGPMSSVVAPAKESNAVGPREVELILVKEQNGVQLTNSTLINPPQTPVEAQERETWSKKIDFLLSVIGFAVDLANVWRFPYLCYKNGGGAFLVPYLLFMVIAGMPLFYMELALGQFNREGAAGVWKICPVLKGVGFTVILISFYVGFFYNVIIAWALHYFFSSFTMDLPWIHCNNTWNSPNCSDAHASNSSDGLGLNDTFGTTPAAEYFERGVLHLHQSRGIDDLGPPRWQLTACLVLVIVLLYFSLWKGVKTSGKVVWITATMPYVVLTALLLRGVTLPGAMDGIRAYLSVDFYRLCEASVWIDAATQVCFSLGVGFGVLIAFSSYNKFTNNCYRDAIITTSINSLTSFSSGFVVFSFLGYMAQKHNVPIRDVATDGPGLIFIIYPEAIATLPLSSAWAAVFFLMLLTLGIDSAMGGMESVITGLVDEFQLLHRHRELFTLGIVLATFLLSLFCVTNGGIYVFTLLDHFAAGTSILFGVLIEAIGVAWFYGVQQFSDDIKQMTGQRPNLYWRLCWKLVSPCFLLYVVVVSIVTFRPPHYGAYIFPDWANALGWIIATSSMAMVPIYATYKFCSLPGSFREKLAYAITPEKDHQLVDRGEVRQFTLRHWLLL
Protocol: (§2) All studies were performed at Gifford Bioscience, Ltd. (Birmingham, UK) according to standard protocols.
(§3) Radioligands used were: [^3H] Citalopram (PerkinElmer NET1039250UC); [^3H] Nisoxetine (PerkinElmer NET1084250UC); [^3H] WIN35428 (PerkinElmer NET1033250UC). Nonspecific compounds used were Citalopram (Tocris Bioscience 1,427); JHW007 (Tocris Bioscience 4,351); Nomifensine (Abcam ab146004). […] Rat brains were dissected and tissue was homogenized in cold lysis buffer, centrifuged at 100xg for 2 min and the supernatant was placed in a fresh tube. Supernatant was centrifuged at 13,000 × g for 10 min at 4°C to re-pellet the cell lysate. The pellet was resuspended in fresh wash buffer (50 mM Tris–HCl; 5 mM MgCl2; 5 mM EDTA) and centrifuged a third time. The pellet was then resuspended in wash buffer containing 10% sucrose as a cryoprotectant, divided into aliquots (0.3 mL) and stored at −80°C. A sample of the homogenate was analyzed for protein content using the Sigma® BCA assay. On the day of the assay, the membrane preparation was thawed and the pellet resuspended in final assay buffer. […] Filters were then dried under a warm air stream, sealed in polyethylene, scintillation cocktail added, and the radioactivity counted in a Wallac® TriLux 1,450 MicroBeta counter. […] Ki was subsequently calculated using the Cheng-Prusoff equation.

[4] = target: T3, 5HT2A receptor (Homo sapiens, UniProt P28223); test: GPCRmax screen, agonist mode, 5HT2A; type: cell-based; settings: for % Agonist Activity: HTR2A
T3 construct: β-galactosidase enzyme fragment (enzyme fragment complementation reporter); host or cells: PathHunter cell lines
T3 sequence (P28223 whole entry, the tested form may be a part): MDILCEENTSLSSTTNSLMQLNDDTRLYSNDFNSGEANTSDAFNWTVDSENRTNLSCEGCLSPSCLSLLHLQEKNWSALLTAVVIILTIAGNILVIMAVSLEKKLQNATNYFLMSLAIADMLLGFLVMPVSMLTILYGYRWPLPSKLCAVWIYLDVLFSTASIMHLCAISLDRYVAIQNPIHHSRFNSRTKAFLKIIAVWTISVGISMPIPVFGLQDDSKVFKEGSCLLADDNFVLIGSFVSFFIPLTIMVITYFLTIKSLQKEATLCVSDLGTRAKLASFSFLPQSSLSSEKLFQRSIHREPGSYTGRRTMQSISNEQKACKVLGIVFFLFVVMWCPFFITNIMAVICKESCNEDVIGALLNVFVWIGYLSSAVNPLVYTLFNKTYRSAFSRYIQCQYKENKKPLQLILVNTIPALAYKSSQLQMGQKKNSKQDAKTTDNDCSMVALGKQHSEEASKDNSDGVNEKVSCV
Protocol: as §1

[5] = system: myelin basic protein (MBP); test: Immunohistochemistry of myelin basic protein in brain; type: in vivo, rat; settings: 10 mg/kg IP, 24 h, vs vehicle
Protocol: The in-life portion of the study was conducted at WuXi Apptec (Cranbury, NJ). Sectioning and staining of brains took place at Neuroscience Associates (NSA, Knoxville, TN). […] Brains were post-fixed in PFA before shipment to NSA for processing and staining. Hemisected brains were mounted, sectioned and stained using standard protocols with myelin-basic protein primary antibody (MBP SMI-99, 1:5000, Biolegend, San Diego, CA) and anti-mouse biotinylated secondary antibody (BA-2001, Vector Laboratories, Newark, CA). Slides were imaged using a Huron Digital Pathology TissueScope LE120 whole slide scanning system. 20x objective was used with a 0.4um/pixel resolution.

[6] = system: frontal cortex gene expression; test: RNA-seq differential gene expression, frontal cortex; type: in vivo, rat; settings: 10 mg/kg IP, 8 h; for Number of genes significantly regulated: vs vehicle
[7] = target: T4, serotonin (5HT) transporter (SERT) (Rattus norvegicus, UniProt P31652); test: Competitive radioligand binding, [3H]citalopram, rat brain membranes
T4 construct: Rat brains were dissected and tissue was homogenized in cold lysis buffer; from tissue; host or cells: rat brain membrane preparation
T4 sequence (P31652 whole entry): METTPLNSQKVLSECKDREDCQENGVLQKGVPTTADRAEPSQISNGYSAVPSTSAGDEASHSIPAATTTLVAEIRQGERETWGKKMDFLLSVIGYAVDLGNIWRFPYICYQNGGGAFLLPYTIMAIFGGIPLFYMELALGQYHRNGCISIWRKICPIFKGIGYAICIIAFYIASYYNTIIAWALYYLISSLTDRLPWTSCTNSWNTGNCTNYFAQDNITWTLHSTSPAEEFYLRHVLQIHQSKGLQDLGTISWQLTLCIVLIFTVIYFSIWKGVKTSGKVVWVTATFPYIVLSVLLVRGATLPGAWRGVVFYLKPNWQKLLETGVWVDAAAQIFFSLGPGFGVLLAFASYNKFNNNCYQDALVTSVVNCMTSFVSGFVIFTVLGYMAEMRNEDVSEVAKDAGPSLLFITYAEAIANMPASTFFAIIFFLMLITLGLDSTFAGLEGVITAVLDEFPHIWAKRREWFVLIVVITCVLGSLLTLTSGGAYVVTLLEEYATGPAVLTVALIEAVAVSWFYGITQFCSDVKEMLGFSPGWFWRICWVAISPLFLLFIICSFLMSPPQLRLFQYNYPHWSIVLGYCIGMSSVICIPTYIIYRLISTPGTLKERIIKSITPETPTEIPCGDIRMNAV
Protocol: as §2, §3

[8] = target: T3, 5HT2A receptor; test: GPCRmax screen, antagonist mode, 5HT2A; type: cell-based; settings: HTR2A
Protocol: as §1

Row | Structure (SMILES) | Additional genes significantly regulated by this drug only ([1]; vs vehicle) | % antagonist activity (inhibition), 5HT2C ([2]; Figure 2B, threshold 50% inhibition) | % Antagonist Activity ([2]; 1 uM) | % Antagonist Activity ([2]; 10 uM) | Ki ([3]; read-out: Ki, DAT, competitive radioligand binding, rat brain membranes, Cheng-Prusoff) | % agonist activity, 5HT2A ([4]; 10 μM, cutoff 30% activity) | % Agonist Activity ([4]; 1 uM) | % Agonist Activity ([4]; 10 uM) | MBP expression, basolateral nucleus of the amygdala [5] | MBP expression, central nucleus of the amygdala [5] | MBP expression, cortex (control region) [5] | More genes significantly regulated compared to methylone ([6]; frontal cortex) | Number of genes significantly regulated ([6]; frontal cortex) | Ki ([7]; read-out: Ki, SERT, competitive radioligand binding, rat brain membranes, Cheng-Prusoff) | % Antagonist Activity ([8]; 1 uM) | % Antagonist Activity ([8]; 10 uM) | Share of genes regulated by this drug that are also regulated by the other drug [1] | Ki [3] | Induction of BDNF, increase compared with controls ([6]; RNA-seq) | Ki [7]
1 | CNC(C)Cc1ccc2c(c1)OCO2 (stereo not drawn) [MDMA, 3,4-Methylenedioxy methamphetamine, reference compound] | 1,313 | 52.2% | 22.5% | 52.2% | 5.11 µM | 27.5% | 4.9% | 27.5% | significant reduction | significant reduction | No change | ~ 72% | 825 genes | 2.62 µM | 5.1% | 3% | – | – | – | –
2 | CNC(C)C(=O)c1ccc2c(c1)OCO2 (stereo not drawn) [methylone] | – | – | 21.1% | 24.2% | – | – | -0.1% | 1.4% | significant reduction | significant reduction | No change | – | 480 genes | – | -7.9% | -2.7% | 87% | 5.73 µM | ~ 60% | 4.15 µM
